# Data published in patent publication US20070281922A1, “1-Sulfonylindazolylamine and - amide derivatives as 5-hydroxytryptamine-6 ligands” (Wyeth, priority 2006, published 2007).
# Where a name gives a salt, the structure may show the parent alone.
# Target: T1, human cloned 5-HT6 receptors (Homo sapiens, UniProt P50406)
# T1 construct: expressed in transfected cells; host or cells: HeLa cells
# Assay: 5-HT6 binding affinity, [3H]-LSD displacement on membranes of Hela cells expressing human cloned 5-HT6 receptors
# Conditions: [3H]-LSD 3.0 nM, Hela cell membranes, 120 minutes at room temperature
# Procedure: The affinity of test compounds for the serotonin 5-HT6 receptor was evaluated in the following manner. Cultured Hela cells expressing human cloned 5-HT6 receptors were harvested and centrifuged at low speed (1,000×g) for 10.0 minutes to remove the culture media. The harvested cells were suspended in half volume of fresh physiological phosphate buffered saline solution and recentrifuged at the same speed. This operation was repeated. The collected cells were then homogenized in ten volumes of 50 mM Tris.HCl (pH 7.4) and 0.5 mM EDTA. The homogenate was centrifuged at 40,000×g for 30.0 min and the precipitate was collected. The obtained pellet was resuspended in 10 volumes of Tris.HCl buffer and recentrifuged at the same speed. The final pellet was suspended in a small volume of Tris.HCl buffer and the tissue protein content was determined in aliquots of 10-25 μl volumes. Bovine Serum Albumin was used as the standard in the protein determination according to the method described in Lowry et al., J. Biol. Chem., 193: 265 (1951).
# The volume of the suspended cell membranes was adjusted to give a tissue protein concentration of 1.0 mg/ml of suspension. The prepared membrane suspension (10 times concentrated) was aliquoted in 1.0 ml volumes and stored at −70° C. until used in subsequent binding experiments.
# Binding experiments were performed in a 96 well microtiter plate format, in a total volume of 200 μl. […] The test compounds were added in 20.0 μl volume.
# The reaction was allowed to proceed in the dark for 120 minutes at room temperature, at which time, the bound ligand-receptor complex was filtered off on a 96 well unifilter with a Packard Filtermate® 196 Harvester. The bound complex caught on the filter disk was allowed to air dry and the radioactivity is measured in a Packard TopCount® equipped with six photomultiplier detectors, after the addition of 40.0 μl Microscint®-20 scintillant to each shallow well. The unifilter plate was heat-sealed and counted in a PackardTopCount® with a tritium efficiency of 31.0%.
# Binding in the presence of varying concentrations of test compound was expressed as a percentage of specific binding in the absence of test compound. The results were plotted as log % bound versus log concentration of test compound. […] A linear regression line of data points was plotted, from which the IC50 value is determined and the Ki value is determined based upon the following equation: […]
# where L was the concentration of the radioactive ligand used and KD is the dissociation constant of the ligand for the receptor, both expressed in nM.
# T1 sequence (P50406 whole entry): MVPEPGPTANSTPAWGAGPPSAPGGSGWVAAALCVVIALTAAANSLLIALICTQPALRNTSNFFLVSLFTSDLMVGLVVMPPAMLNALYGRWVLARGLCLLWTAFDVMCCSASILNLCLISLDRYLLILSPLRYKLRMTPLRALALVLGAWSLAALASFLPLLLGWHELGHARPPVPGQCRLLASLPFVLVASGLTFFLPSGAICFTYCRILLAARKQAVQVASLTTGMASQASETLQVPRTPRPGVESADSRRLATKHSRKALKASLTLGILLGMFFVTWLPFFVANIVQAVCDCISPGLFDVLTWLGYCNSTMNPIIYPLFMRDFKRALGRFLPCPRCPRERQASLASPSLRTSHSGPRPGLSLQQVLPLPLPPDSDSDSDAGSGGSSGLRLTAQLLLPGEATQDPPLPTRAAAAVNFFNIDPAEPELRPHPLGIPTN
row,SMILES,Ki
1,O=C(CCN1CCCCC1)Nc1ccc2cnn(S(=O)(=O)c3cccc4ccccc34)c2c1 [Example 12],15 nM
2,NCCC(=O)Nc1ccc2c(cnn2S(=O)(=O)c2cccc3ccccc23)c1 [Example 6],49.5 nM
3,CN(C)CCC(=O)Nc1ccc2cnn(S(=O)(=O)c3cccc4ccccc34)c2c1 [Example 10],1.8 nM
4,NCCC(=O)Nc1cccc2c1cnn2S(=O)(=O)c1cccc2ccccc12 [Example 5],7.9 nM
5,CNCCC(=O)Nc1ccc2cnn(S(=O)(=O)c3cccc4ccccc34)c2c1 [Example 7],1.2 nM
6,"O=S(=O)(c1cccc2ccccc12)n1ncc2ccc(NCC3CCNCC3)cc21 [Example 14, [1-(Naphthalene-1-sulfonyl)-1H-indazol-6-yl]-piperidin-4-ylmethyl-amine dihydrochloride]",18.4 nM

# Continued by falling Ki, values first:
row,Ki,SMILES
1,3.4 nM,O=C(Nc1ccc2cnn(S(=O)(=O)c3cccc4ccccc34)c2c1)C1CCCNC1 (stereo not shown) [Example 9]
2,2.3 nM,O=C(Nc1ccc2cnn(S(=O)(=O)c3cccc4ccccc34)c2c1)C1CCNCC1 [Example 8]
3,2.1 nM,CCN(CC)CCC(=O)Nc1ccc2cnn(S(=O)(=O)c3cccc4ccccc34)c2c1 [Example 11]
4,0.5 nM,"NCCC(=O)Nc1ccc2cnn(S(=O)(=O)c3cccc4ccccc34)c2c1 [Example 4, N^1-[1-(1-naphthylsulfonyl-1-H-indazol-6-yl]beta-alaninamide Hydrochloride]"
